ChEMBL document CHEMBL1800066 (J Med Chem, 2011)
pIC50, pKd: −log10 of the molar value. Calls of active or inactive are those of the source. The calls are words filed in the database; no cut-off is given here.

Assays:
Mus musculus [1] = assay: Toxicity in human GTL16 cells xenografted CD1 nu/nu mouse assessed as change in median body weight at 200 mg/kg, po QD; type: organism-based; design: dose 200 mg/kg, route oral; details: in vivo
[2] = target: Vascular endothelial growth factor receptor 1 (Homo sapiens, UniProt P17948); assay: Inhibition of human Flt1
[3] = target: Voltage-gated inwardly rectifying potassium channel KCNH2 (Homo sapiens, UniProt Q12809); assay: Inhibition of Kv11.1 channel
[4] = target: T1, Hepatocyte growth factor receptor (Homo sapiens, UniProt P08581); assay: Inhibition of recombinant human c-MET phosphorylation at C-terminal Y1235
[5] = AUC (0 to infinity) in rat at 2 mg/kg, iv; type: ADME, organism-based; design: time infinity, dose 2 mg/kg, route intravenous; details: plasma
[6] = Cmax in mouse at 2 mg/kg, po; type: ADME, organism-based; design: dose 2 mg/kg, route oral; details: in vivo
[7] = target: Fibroblast growth factor receptor 1 (Homo sapiens, UniProt P11362); assay: Inhibition of human FGFR1
[8] = Tmax in dog at 2 mg/kg, po; type: ADME, organism-based, Canis lupus familiaris; design: dose 2 mg/kg, route oral; details: in vivo
Cytochrome P450 2C9 = Cytochrome P450 2C9 (Homo sapiens, UniProt P11712); assay: Inhibition of CYP2C9; type: ADME
[9] = Volume of distribution at steady state in dog at 1 mg/kg, iv; type: ADME, organism-based, Canis lupus familiaris; design: dose 1 mg/kg, route intravenous; details: in vivo, read-out: Vdss
GTL 16 [10] = assay: Antitumor activity against human GTL16 cells xenografted in CD1 nu/nu mouse assessed as suppression of tumor growth at 200 mg/kg, po QD; type: functional, organism-based; design: dose 200 mg/kg
[11] = Oral bioavailability in monkey at 0.5 mg/kg; type: ADME, organism-based, Macaca mulatta; details: rhesus monkey, in vivo
Mus musculus [12] = assay: Toxicity in human GTL16 cells xenografted CD1 nu/nu mouse assessed as change in median body weight at 10 to 100 mg/kg, po BID; type: organism-based; design: dose 10-100 mg/kg, route oral; details: in vivo
[13] = AUC (0 to infinity) in mouse at 2 mg/kg, po; type: ADME, organism-based; design: time infinity, dose 2 mg/kg, route oral; details: plasma
[14] = target: Platelet-derived growth factor receptor alpha (Homo sapiens, UniProt P16234); assay: Inhibition of human PDGFR-alpha
[15] = target: Tyrosine-protein kinase ABL1 (Homo sapiens, UniProt P00519); assay: Inhibition of human Abl
[16] = target: T1, Hepatocyte growth factor receptor; assay: Inhibition of c-MET overexpressed in human GTL-16 cells assessed as phosphorylation at C-terminal Y1349 after 2 hrs by Western blot analysis; type: cell-based
[17] = Lipophilicity, log P of the compound; type: physicochemical; details: octanol/water
[18] = target: Hepatocyte growth factor receptor (Homo sapiens, UniProt P08581, N1100Y)
Canis familiaris [19] = assay: Oral bioavailability in dog at 2 mg/kg; type: ADME, organism-based, Canis lupus familiaris; details: in vivo
[20] = target: T1, Hepatocyte growth factor receptor; assay: Binding affinity to human recombinant His6-tagged unphosphorylated c-Met cytosolic domain
GTL 16 [21] = assay: Antitumor activity against human GTL16 cells xenografted in CD1 nu/nu mouse assessed as suppression of tumor growth at 10 to 100 mg/kg, po BID; type: functional, organism-based
[22] = Plasma clearance in rat at 2 mg/kg, iv and 5 mg/kg, po; type: ADME, organism-based
Canis familiaris [23] = assay: AUC (0 to infinity) in dog at 1 mg/kg, iv; type: ADME, organism-based, Canis lupus familiaris, Plasma; design: time infinity, dose 1 mg/kg, route intravenous; details: in vivo
[24] = target: T1, Hepatocyte growth factor receptor; assay: Inhibition of recombinant human c-MET phosphorylation at C-terminal Y1365
[25] = target: T1, Hepatocyte growth factor receptor
[26] = target: Hepatocyte growth factor receptor (Homo sapiens, UniProt P08581, Y1235D)
[27] = Volume of distribution at steady state in rat at 2 mg/kg, iv and 5 mg/kg, po; type: ADME, organism-based; details: in vivo, read-out: Vdss
[28] = target: T1, Hepatocyte growth factor receptor; assay: Inhibition of c-MET overexpressed in human GTL-16 cells assessed as phosphorylation at C-terminal Y1234 after 2 hrs by Western blot analysis; type: cell-based
[29] = Oral bioavailability in mouse at 2 mg/kg; type: ADME, organism-based; details: in vivo
Mus musculus [30] = assay: Inhibition of c-Met phosphorylation at Y1349 in human GTL16 cells xenografted in po dosed CD1 nu/nu mouse measured 1 hr post dosing by Western blot analysis; details: CD1, GTL 16, 1 h
[31] = target: Vascular endothelial growth factor receptor 3 (Homo sapiens, UniProt P35916); assay: Inhibition of human Flt4
[32] = Plasma clearance in dog at 1 mg/kg, iv; type: ADME, organism-based, Canis lupus familiaris; design: dose 1 mg/kg, route intravenous
[33] = target: BDNF/NT-3 growth factors receptor (Homo sapiens, UniProt Q16620); assay: Inhibition of human TrkB
[34] = target: T1, Hepatocyte growth factor receptor; assay: Inhibition of recombinant human c-MET phosphorylation at C-terminal Y1349
[35] = target: High affinity nerve growth factor receptor (Homo sapiens, UniProt P04629); assay: Inhibition of human TrkA
[36] = Inhibition of potassium channel IKr
Mus musculus [37] = assay: Inhibition of c-Met phosphorylation at Y1349 in human GTL16 cells xenografted in CD1 nu/nu mouse at 10 to 100 mg/kg, po BID measured after 4 hrs by immunostaining assay; type: functional, organism-based
Mus musculus [38] = assay: Inhibition of Akt phosphorylation at S473 in human GTL16 cells xenografted in CD1 nu/nu mouse at 10 to 100 mg/kg, po BID measured after 4 hrs by immunostaining assay; type: functional, organism-based
[39] = target: T1, Hepatocyte growth factor receptor; assay: Inhibition of c-MET overexpressed in human GTL-16 cells assessed as phosphorylation at C-terminal Y1235 after 2 hrs by Western blot analysis; type: cell-based
Canis familiaris [40] = assay: AUC (0 to infinity) in dog at 2 mg/kg, po; type: ADME, organism-based, Canis lupus familiaris, Plasma; design: time infinity, dose 2 mg/kg, route oral; details: in vivo
[41] = Plasma clearance in mouse at 1 mg/kg, iv; type: ADME, organism-based; design: dose 1 mg/kg, route intravenous
[42] = target: Macrophage-stimulating protein receptor (Homo sapiens, UniProt Q04912); assay: Inhibition of human Ron
[43] = AUC (0 to infinity) in rat at 5 mg/kg, po; type: ADME, organism-based; design: dose 5 mg/kg, route oral, time infinity; details: plasma
[44] = target: T1, Hepatocyte growth factor receptor; assay: Binding affinity to human recombinant His6-tagged phosphorylated c-Met cytosolic domain
[45] = Tmax in mouse at 2 mg/kg, po; type: ADME, organism-based; design: dose 2 mg/kg, route oral; details: in vivo
[46] = target: Receptor-type tyrosine-protein kinase FLT3 (Homo sapiens, UniProt P36888); assay: Inhibition of human Flt3
Aurora kinase A = Aurora kinase A (Homo sapiens, UniProt O14965); assay: Inhibition of human Aurora A
[47] = Volume of distribution at steady state in mouse at 1 mg/kg, iv; type: ADME, organism-based; design: dose 1 mg/kg, route intravenous; details: in vivo, read-out: Vdss
[48] = target: Vascular endothelial growth factor receptor 2 (Homo sapiens, UniProt P35968); assay: Inhibition of human KDR
[49] = target: Hepatocyte growth factor receptor (Homo sapiens, UniProt P08581, Y1230C)
[50] = Tmax in monkey at 0.5 mg/kg, po; type: ADME, organism-based, Macaca mulatta; design: dose 0.5 mg/kg, route oral; details: rhesus monkey, in vivo
[51] = AUC (0 to infinity) in monkey at 0.25 mg/kg, iv; type: ADME, organism-based, Macaca mulatta; design: time infinity, dose 0.25 mg/kg, route intravenous; details: rhesus monkey, plasma
[52] = target: T1, Hepatocyte growth factor receptor; assay: Inhibition of recombinant human c-MET phosphorylation at C-terminal Y1234
[53] = Half life in rat at 2 mg/kg, iv and 5 mg/kg, po; type: ADME, organism-based; details: in vivo
[54] = Antiproliferative activity against human GTL16 cells after 72 hrs; details: GTL 16, 72 h

Structure (SMILES): CN(C[C@@H]1COCCO1)S(=O)(=O)Nc1ccc2ccc3ncc(-c4cnn(C)c4)cc3c(=O)c2c1 [MK-2461]
- Activity (Mus musculus [1]): Non-toxic
- pIC50 [2]: 8.00
- pIC50 [3]: < 4.52
- pIC50 [4]: 6.05
- AUC(0-inf) [5]: 7.6 µM·h
- Cmax [6]: 410 nM
- pIC50 [7]: 7.19
- Tmax [8]: 1.4 h
- pIC50 (Cytochrome P450 2C9): 5.92
- Vd [9]: 1.1 L/kg
- Activity (GTL 16 [10]): Active
- bioavailability [11]: 14%
- Activity (Mus musculus [12]): Non-toxic
- AUC(0-inf) [13]: 0.6 µM·h
- pIC50 [14]: > 7.00
- pIC50 [15]: 5.11
- pIC50 [16]: 7.25
- logP [17]: 2.7
- pIC50 [18]: 8.82
- F (Canis familiaris [19]): 13%
- pKd [20]: 7.60
- Activity (GTL 16 [21]): Active
- clearance [22]: 9.1 mL/min/kg
- AUC (Canis familiaris [23]): 8.4 µM·h
- pIC50 [24]: 7.59
- pIC50 [25]: 8.70
- pIC50 [26]: 9.30
- Vd [27]: 0.4 L/kg
- pIC50 [28]: < 5.60
- bioavailability [29]: 75%
- pIC50 (Mus musculus [30]): 6.00
- pIC50 [31]: 7.11
- clearance [32]: 4.3 mL/min/kg
- pIC50 [33]: 7.21
- pIC50 [34]: 7.00
- pIC50 [35]: 7.34
- pIC50 [36]: < 4.52
- inhibition (Mus musculus [37]): Active
- inhibition (Mus musculus [38]): Active
- pIC50 [39]: < 5.60
- AUC (Canis familiaris [40]): 13.7 µM·h
- clearance [41]: 83 mL/min/kg
- pIC50 [42]: 8.15
- AUC(0-inf) [43]: 11.8 µM·h
- pKd [44]: 8.40
- Tmax [45]: 18 min
- pIC50 [46]: 7.66
- pIC50 (Aurora kinase A): 6.54
- Vd [47]: 3.2 L/kg
- pIC50 [48]: 7.36
- pIC50 [49]: 8.82
- Tmax [50]: 3 h
- AUC(0-inf) [51]: 1 µM·h
- pIC50 [52]: 6.05
- half-life [53]: 48 min
- pIC50 [54]: 6.36
